Test results from paper PMC6270359, “Cholinesterase Enzymes Inhibitors from the Leaves of Rauvolfia Reflexa and Their Molecular Docking Study” (Molecules, 2013).
Several values for one entry are separate records, joined by “and”; a condition that tells them apart may be missing. Identical values can stand only once. Like-named read-outs stand apart in the source and are kept apart here.

Tests used:
[1] = biological target: T1, acetylcholinesterase from electric eel (AChE) (Electrophorus electricus, UniProt O42275); test: Acetylcholinesterase inhibitory assay (Ellman's microplate assay); assay type: biochemical; conditions: for IC50: Mean ± SD (n = 3)
T1 construct: purchased Sigma Chemicals (St. Louis, MO, USA)
Procedure: (§1) Acetylthiocholine iodide (ATCl), acetylcholinesterase from electric eel (AChE), 5,5'-dithiobis[2-nitrobenzoic acid] […] All the other reagents used were of analytical grade.
(§2) Cholinesterase enzymes inhibitory potential of test samples was evaluated using Ellman’s microplate assay following the method described by Ahmed and Gilani with slight modifications. […] The concentration of DMSO in final reaction mixture was 1%.
(§3) For acetylcholinesterase (AChE) inhibitory assay, 140 μL of 0.1 M sodium phosphate buffer (pH 8) was first added to a 96-wells microplate followed by 20 μL of test samples and 20 μL of 0.09 units/mL acetylcholinesterase enzyme. After 15 min of pre-incubation at 25 °C, 10 μL of 10 mM 5,5'-dithiobis (2-nitrobenzoic acid) was added into each well, followed by 10 μL of 14 mM acetylthiocholine iodide. After the initiation of enzymatic reaction, absorbance of the coloured end-product was measured for 15 min using Tecan Infinite 200 Pro Microplate Spectrophotometer (Männedorf, Switzerland) at 417 nm.
(§4) For butyrylcholinesterase (BChE) inhibitory assay, the same procedures as described above were followed except for the use of enzyme and substrate, which were BChE from equine serum and S-butyrylthiocholine chloride, respectively. Each test was conducted in triplicate. Absorbencies of the test samples were corrected by subtracting the absorbance of their respective blank. […] Percentage inhibition was calculated using the following formula: Percentage inhibition (%) = Absorbance of control - Absorbance of test sample/Absorbance of control×100%

[2] = biological target: T2, butyrylcholinesterase from equine serum (BChE) (Equus caballus, UniProt P81908); test: Butyrylcholinesterase inhibitory assay (Ellman's microplate assay); assay type: biochemical
T2 construct: purchased Sigma Chemicals (St. Louis, MO, USA); host or cells: equine serum
Procedure: as §1, §2, §3, §4

[3] = isolated chemical constituents at 10 μg/mL, initial screening
[4] = chemical constituents, read-out: AChE inhibition, IC50 (converted)

T1 sequence (O42275 24-633): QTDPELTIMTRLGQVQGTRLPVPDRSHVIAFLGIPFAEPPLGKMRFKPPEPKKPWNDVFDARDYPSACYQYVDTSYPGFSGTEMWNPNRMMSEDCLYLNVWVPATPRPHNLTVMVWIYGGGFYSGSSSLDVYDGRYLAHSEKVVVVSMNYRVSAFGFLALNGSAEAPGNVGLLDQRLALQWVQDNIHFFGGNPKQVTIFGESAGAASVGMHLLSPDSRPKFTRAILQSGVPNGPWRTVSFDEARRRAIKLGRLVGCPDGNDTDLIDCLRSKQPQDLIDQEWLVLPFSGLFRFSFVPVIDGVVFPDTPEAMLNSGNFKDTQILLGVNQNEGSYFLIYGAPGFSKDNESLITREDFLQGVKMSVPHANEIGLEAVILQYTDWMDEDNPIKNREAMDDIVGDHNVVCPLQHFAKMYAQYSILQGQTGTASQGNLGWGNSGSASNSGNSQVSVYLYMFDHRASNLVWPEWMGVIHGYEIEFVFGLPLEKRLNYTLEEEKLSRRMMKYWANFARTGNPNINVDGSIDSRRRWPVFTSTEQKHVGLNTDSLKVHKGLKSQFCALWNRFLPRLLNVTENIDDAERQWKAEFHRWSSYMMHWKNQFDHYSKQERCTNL
T2 sequence (P81908 whole entry): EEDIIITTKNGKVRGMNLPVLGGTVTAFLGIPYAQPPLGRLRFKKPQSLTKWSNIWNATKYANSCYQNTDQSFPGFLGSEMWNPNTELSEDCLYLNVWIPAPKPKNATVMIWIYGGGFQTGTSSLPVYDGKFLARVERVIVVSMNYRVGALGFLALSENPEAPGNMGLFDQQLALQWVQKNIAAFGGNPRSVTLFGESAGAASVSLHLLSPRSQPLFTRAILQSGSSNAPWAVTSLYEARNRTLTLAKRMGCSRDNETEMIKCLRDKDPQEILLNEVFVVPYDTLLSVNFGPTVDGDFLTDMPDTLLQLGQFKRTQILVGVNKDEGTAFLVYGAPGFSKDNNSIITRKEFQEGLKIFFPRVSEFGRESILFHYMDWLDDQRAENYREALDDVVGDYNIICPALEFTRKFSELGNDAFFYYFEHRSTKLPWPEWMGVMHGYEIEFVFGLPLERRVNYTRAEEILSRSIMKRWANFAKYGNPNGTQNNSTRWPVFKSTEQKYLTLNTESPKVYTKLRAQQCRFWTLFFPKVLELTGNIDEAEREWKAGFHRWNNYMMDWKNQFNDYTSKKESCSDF

**Q.** How did the IC50 ([1]; AChE inhibition, IC50, chemical constituents) turn out when `COc1cc(/C=C/C(=O)O)cc(OC)c1OC` [Compound 1, (E)-3-(3,4,5-Trimethoxyphenyl) acrylic acid] was run?
**A.** 60.1 µM

**Q.** What about the AChE inhibition [1, 3] of the same molecule?
**A.** much lower inhibition

**Q.** What about the IC50 ([1]; read-out: AChE inhibition, IC50, chemical constituents) of the same molecule?
**A.** 60.2 ± 14.4 µM

**Q.** Which results are given for `COC(=O)/C=C/c1cc(OC)c(O)c(OC)c1` [Compound 2, (E)-methyl 3-(4-hydroxy-3,5-dimethoxyphenyl) acrylate]?
**A.** Selectivity for AChE ([1]; chemical constituents, IC50(BChE)/IC50(AChE)): 0.39; IC50 [1, 4]: 158 µM; inhibition at 10 µg/mL [1, 3]: 40.4%; Selectivity for BChE ([2]; chemical constituents, IC50(AChE)/IC50(BChE)): 2.56; IC50 ([2]; chemical constituents, Mean ± SD (n = 3), read-out: BChE inhibition, IC50 (converted)): 61.7 µM; inhibition at 10 µg/mL [2, 3]: 91.3%

**Q.** Which IC50 [1, 4] does the source give for `O=C1NCCc2c1[nH]c1ccccc21` [Compound 4, 1,2,3,4-Tetrahydro-1-oxo-β-carboline] here?
**A.** 83.3 µM and 83.4 µM

**Q.** And the inhibition at 10 µg/mL [1, 3]?
**A.** 41.3%
